# How the values were obtained:
# [1] = tested on: recombinant human anti-SARS-CoV antibody 03-018; assay type: binding; parameters: Binding of antibody 03-018 to linear peptides of the N protein of SARS-CoV Urbani / Binding of antibody 03-018 to looped/cyclic peptides of the N protein of SARS-CoV Urbani: unit not given here
# [2] = tested on: rabbit serum obtained by immunizing a rabbit with the SARS-CoV strain Frankfurt 1; assay type: binding; parameters: Binding of a rabbit serum to linear peptides / Binding of a rabbit serum to looped peptides / Rabbit serum linear peptides / Rabbit serum looped peptides / Binding of a rabbit serum to linear peptides of protein N of SARS-CoV Urbani (Rabbit serum linear peptides) / Binding of a rabbit serum to looped/cyclic peptides of protein N of SARS-CoV Urbani (Rabbit serum looped peptides): unit not given here
# [3] = tested on: control sera (pooled serum of ten healthy LUMC hospital workers; commercial negative donor pooled serum from the Dutch bloodbank); assay type: binding, human; parameters: Binding of Control serum LUMC to linear peptides / Binding of Control serum Blood-bank to linear peptides / Binding of Control serum LUMC to looped peptides / Binding of Control Serum Blood-Bank to Looped peptides / Binding of Control serum LUMC to linear peptides of the protein M of SARS-CoV Urbani / Binding of Control serum Blood-bank to linear peptides of the protein M of SARS-CoV Urbani / Binding of Control serum LUMC to looped peptides of the protein M of SARS-CoV Urbani / Binding of Control Serum Blood-Bank to Looped peptides of the protein M of SARS-CoV Urbani: unit not given here
# [4] = tested on: antibodies in sera from SARS patients (sera 1a, 1b, 2, 6, 37, 62, London, SARS-yellow, SARS-green); assay type: binding, human; parameters: Binding of serum 6 to linear peptides of protein X1 of SARS-CoV Urbani / Binding of serum 37 to linear peptides of protein X1 of SARS-CoV Urbani / Binding of serum 6 to looped/cyclic peptide (PEPSCAN-ELISA) / Binding of serum 37 to looped/cyclic peptide (PEPSCAN-ELISA) / Binding of serum 37 to looped/cyclic peptides of protein X1 of SARS-CoV Urbani / Binding of serum 6 to linear peptides of protein X2 / Binding of serum 37 to linear peptides of protein X2 / Binding of serum 37 to looped/cyclic peptides of protein X2 of SARS-CoV Urbani / Binding of serum 6 to linear peptides of protein M of SARS-CoV Urbani / Binding of serum 37 to linear peptides of protein M of SARS-CoV Urbani / Binding of serum 6 to looped/cyclic peptides of protein M of SARS-CoV Urbani / Binding of serum 37 to looped/cyclic peptides of protein M of SARS-CoV Urbani / Binding of serum 6 to linear peptides of protein X3 of SARS-CoV Urbani / Binding of serum 37 to linear peptides of protein X3 of SARS-CoV Urbani / Binding of serum 37 to looped/cyclic peptides of protein X3 of SARS-CoV Urbani / Binding of serum 6 to linear peptides of protein X4 of SARS-CoV Urbani / Binding of serum 37 to linear peptides of protein X4 of SARS-CoV Urbani / Binding of serum 37 to looped/cyclic peptides of protein X4 of SARS-CoV Urbani / Binding of serum 6 to linear peptides of protein X5 of SARS-CoV Urbani / Binding of serum 37 to linear peptides of protein X5 of SARS-CoV Urbani / Binding of serum 37 to looped/cyclic peptides of protein X5 of SARS-CoV Urbani / Binding of serum 6 to linear peptides of protein N of SARS-CoV Urbani / Binding of serum 37 to linear peptides of protein N of SARS-CoV Urbani / Binding of serum 6 to linear peptide (PEPSCAN-ELISA) / Binding of serum 1a to looped/cyclic peptides of protein N of SARS-CoV Urbani / Binding of serum 1b to looped/cyclic peptides of protein N of SARS-CoV Urbani / Binding of serum 2 to looped/cyclic peptides of protein N of SARS-CoV Urbani / Binding of serum 6 to looped/cyclic peptides of protein N of SARS-CoV Urbani / Binding of serum 37 to looped/cyclic peptides of protein N of SARS-CoV Urbani / Binding of serum 62 to looped/cyclic peptides of protein N of SARS-CoV Urbani / Binding of serum London to looped/cyclic peptides of protein N of SARS-CoV Urbani / Binding of serum SARS-green to looped/cyclic peptides of protein N of SARS-CoV Urbani: unit not given here
Sequence,Binding of antibody 03-018 to linear peptides of the N protein of SARS-CoV Urbani [1],Binding of antibody 03-018 to looped/cyclic peptides of the N protein of SARS-CoV Urbani [1],Binding of a rabbit serum to linear peptides of protein N of SARS-CoV Urbani (Rabbit serum linear peptides) [2],Binding of a rabbit serum to looped/cyclic peptides of protein N of SARS-CoV Urbani (Rabbit serum looped peptides) [2],Control Serum Blood-Bank Looped peptides [3],Control serum Blood-bank linear peptides [3],Control serum LUMC linear peptides [3],Control serum LUMC looped peptides [3],Binding of serum 1a to linear peptides of protein N of SARS-CoV Urbani [4],Binding of serum 1a to looped/cyclic peptides of protein N of SARS-CoV Urbani [4],Binding of serum 1b to linear peptides of protein N of SARS-CoV Urbani [4],Binding of serum 1b to looped/cyclic peptides of protein N of SARS-CoV Urbani [4],Binding of serum 2 to linear peptides of protein N of SARS-CoV Urbani [4],Binding of serum 2 to looped/cyclic peptides of protein N of SARS-CoV Urbani [4],Binding of serum 6 to looped/cyclic peptides of protein N of SARS-CoV Urbani [4],Binding of serum 37 to looped/cyclic peptides of protein N of SARS-CoV Urbani [4],Binding of serum 62 to looped/cyclic peptides of protein N of SARS-CoV Urbani [4],Binding of serum London to looped/cyclic peptides of protein N of SARS-CoV Urbani [4],Binding of serum SARS-green to looped/cyclic peptides of protein N of SARS-CoV Urbani [4],Binding of serum SARS-yellow to looped/cyclic peptides of protein N of SARS-CoV Urbani [4],further results
KHWPQIAQFAPSASA,0.1,0.2,0.2,0.0,0.7,0.8,0.7,0.6,0.3,0.3,0.1,0.1,0.3,0.3,0.3,0.2,0.4,0.5,0.4,0.2,Binding of serum 6 to linear peptides of protein N of SARS-CoV Urbani [4]: 0.2; Binding of serum 37 to linear peptides of protein N of SARS-CoV Urbani [4]: 0.8; Binding of serum 62 to linear peptides of protein N of SARS-CoV Urbani [4]: 0.7; Binding of serum London to linear peptides of protein N of SARS-CoV Urbani [4]: 0.7; Binding of serum SARS-green to linear peptides of protein N of SARS-CoV Urbani [4]: 0.6; Binding of serum SARS-yellow to linear peptides of protein N of SARS-CoV Urbani [4]: 0.8
KKDKKKKTDEAQPLP,0.1,0.2,0.1,0.2,0.5,0.7,0.6,0.4,0.3,0.2,0.2,0.1,1.9,2.3,0.2,0.3,0.3,0.3,0.1,0.1,Binding of serum 6 to linear peptides of protein N of SARS-CoV Urbani [4]: 0.2; Binding of serum 37 to linear peptides of protein N of SARS-CoV Urbani [4]: 0.7; Binding of serum 62 to linear peptides of protein N of SARS-CoV Urbani [4]: 0.7; Binding of serum London to linear peptides of protein N of SARS-CoV Urbani [4]: 0.6; Binding of serum SARS-green to linear peptides of protein N of SARS-CoV Urbani [4]: 0.4; Binding of serum SARS-yellow to linear peptides of protein N of SARS-CoV Urbani [4]: 0.6
KKPRQKRTATKQYNV,0.1,0.2,0.3,0.0,,,,,,0.3,,0.1,,0.4,0.3,0.6,0.5,0.5,0.1,0.4,Binding of Control Serum Blood-Bank to Looped peptides [3]: 0.4; Binding of Control serum Blood-bank to linear peptides [3]: 0.6; Binding of Control serum LUMC to linear peptides [3]: 0.7; Binding of Control serum LUMC to looped peptides [3]: 0.5; Binding of serum 1a to linear peptide (PEPSCAN-ELISA) [4]: 0.2; Binding of serum 1b to linear peptide (PEPSCAN-ELISA) [4]: 0.1; Binding of serum 2 to linear peptide (PEPSCAN-ELISA) [4]: 0.3; Binding of serum 6 to linear peptide (PEPSCAN-ELISA) [4]: 0.2; Binding of serum 37 to linear peptide (PEPSCAN-ELISA) [4]: 0.8; Binding of serum 62 to linear peptide (PEPSCAN-ELISA) [4]: 0.8; Binding of serum London to linear peptide (PEPSCAN-ELISA) [4]: 0.7; Binding of serum SARS-green to linear peptide (PEPSCAN-ELISA) [4]: 0.1; Binding of serum SARS-yellow to linear peptide (PEPSCAN-ELISA) [4]: 0.6
KKQPTVTLLPAADMD,0.1,0.2,0.1,0.2,0.3,0.7,0.6,0.3,0.3,0.3,0.2,0.2,0.2,0.2,0.1,0.4,0.2,0.2,0.7,0.2,Binding of serum 6 to linear peptides of protein N of SARS-CoV Urbani [4]: 0.2; Binding of serum 37 to linear peptides of protein N of SARS-CoV Urbani [4]: 1.0; Binding of serum 62 to linear peptides of protein N of SARS-CoV Urbani [4]: 0.7; Binding of serum London to linear peptides of protein N of SARS-CoV Urbani [4]: 0.6; Binding of serum SARS-green to linear peptides of protein N of SARS-CoV Urbani [4]: 1.3; Binding of serum SARS-yellow to linear peptides of protein N of SARS-CoV Urbani [4]: 0.5

# Reference: US20070128217A1 (priority 2003, published 2007)
